The test deals with AMPK. The test can be described thus: AMPK activation assay (enzyme-linked immunosorbent assay). It counts as cell-based. Summed up: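 Activator screen performed per well-known kit methods.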

These results are taken from patent publication US20150087673A1, “METHODS FOR USING AND BIOMARKERS FOR AMPK-ACTIVATING COMPOUNDS” (RIGEL PHARMACEUTICALS, INC., priority 2013, published 2015).

Where only a bound is given, the exact number is not on record here.

Usually EC50 stands for the concentration giving half of the maximal effect. In turn, `COc1ccc(C(=O)C2CCN(C(=O)c3ccc(C(=O)NC4CCN(Cc5ccc(OC(F)(F)F)cc5)CC4)cn3)CC2)cc1` [Compound 430, 6-(4-(4-methoxybenzoyl)piperidine-1-carbonyl)-N-(1-(4-(trifluoromethoxy)benzyl)piperidin-4-yl)nicotinamide] displayed an EC50 below 500 nM.

As to `N#Cc1ccc(CN2CCC3(CC2)CCN(c2ccc(C(=O)N4CCN(Cc5ccc(F)cc5)CC4)cn2)C3)cc1` [Compound 31, 4-((2-(5-(4-(4-fluorobenzyl)piperazine-1-carbonyl)pyridin-2-yl)-2,8-diazaspiro[4.5]decan-8-yl)methyl)benzonitrile], the EC50 was below 500 nM.

Regarding `O=C(NC1CCN(Cc2cc(F)cc(F)c2)CC1)c1ccc(C(=O)N2CCC(C(=O)c3ccc(F)c(F)c3)CC2)cn1` [Compound 298, 5-(4-(3,4-difluorobenzoyl)piperidine-1-carbonyl)-N-(1-(3,5-difluorobenzyl)piperidin-4-yl)picolinamide], the EC50 was below 500 nM.

Consider `N#Cc1ccc(CN2CCC(Nc3ccc(C(=O)N4CCN(Cc5ccc(F)cc5)CC4)cn3)CC2)cc1` [Compound 36, (6-(4-(cyanobenzyl)piperidin-4-ylamino)pyridin-3-yl)(4-(4-fluorobenzyl)piperazin-1-yl)methanone], for which the EC50 lay within 500 to 1000 nM.

Molecule `CC(C)(C)C(=O)N1CCN(C(=O)c2ccc(C(=O)NC3CCN(Cc4ccc(C#N)cc4)CC3)nc2)CC1` [Compound 81, N-(1-(4-cyanobenzyl)piperidin-4-yl)-5-(4-pivaloylpiperazine-1-carbonyl)picolinamide] showed an EC50 of 500 to 1000 nM.

`O=C(NC1CCN(C(=O)c2ccccc2)CC1)c1ccc(C(=O)N2CCN(Cc3ccc(F)cc3)CC2)cn1` [Compound 8, N-(1-(benzoyl)piperidin-4-yl)-5-(4-(4-fluorobenzyl)piperazine-1-carbonyl)picolinamide] returned an EC50 below 500 nM.

With `O=C(NC1CCN(CC2CCCCC2)CC1)c1ccc(C(=O)N2CCN(Cc3ccc(F)cc3)CC2)cn1` [Compound 13, N-(1-(cyclohexylmethyl)piperidin-4-yl)-5-(4-(4-fluorobenzyl)piperazine-1-carbonyl)picolinamide], the EC50 was in the range of 1000 to 5000 nM.

On to `CS(=O)(=O)c1ccc(N2CCN(C(=O)c3ccc(C(=O)NC4CCN(Cc5ccc(C#N)cc5)CC4)nc3)CC2)cc1` [Compound 250, N-(1-(4-cyanobenzyl)piperidin-4-yl)-5-(4-(4-(methylsulfonyl)phenyl)piperazine-1-carbonyl)picolinamide], for which the EC50 was below 500 nM.

On to `N#Cc1ccc(OC2CCN(C(=O)c3ccc(C(=O)N[C@H]4CC[C@@H](Oc5ccc(C#N)cc5)CC4)cn3)CC2)cc1` [Compound 321, N-((cis)-4-(4-cyanophenoxy)cyclohexyl)-6-(4-(4-cyanophenoxy)piperidine-1-carbonyl)nicotinamide], for which the EC50 is below 500 nM.

`N#Cc1ccc(OC2CCN(C(=O)c3ccc(C(=O)NC4CCN(Cc5ccc(N6CCCC6)cc5)CC4)cn3)CC2)cc1` [Compound 336, 6-(4-(4-cyanophenoxy)piperidine-1-carbonyl)-N-(1-(4-(pyrrolidin-1-yl)benzyl)piperidin-4-yl)nicotinamide] had an EC50 below 500 nM.

As for `CC(=O)Nc1ccc(OC2CCN(C(=O)c3ccc(C(=O)NC4CCN(Cc5ccc(F)cc5)CC4)cn3)CC2)cc1` [Compound 406, 6-(4-(4-acetamidophenoxy)piperidine-1-carbonyl)-N-(1-(4-fluorobenzyl)piperidin-4-yl)nicotinamide], the EC50 is 500 to 1000 nM.

For `COc1ccc(C(=O)C2CCN(C(=O)c3ccc(C(=O)NCCOc4ccc(F)cc4)nc3)CC2)cc1` [Compound 305, N-(2-(4-fluorophenoxy)ethyl)-5-(4-(4-methoxybenzoyl)piperidine-1-carbonyl)picolinamide], the EC50 was below 500 nM.

Regarding `O=C(Nc1ccc(Oc2ccc(F)cc2)nc1)c1ccc(C(=O)N2CCC(Oc3ccc(NS(=O)(=O)C4CC4)cc3)CC2)nc1` [Compound 449, 6-(4-(4-(cyclopropanesulfonamido)phenoxy)piperidine-1-carbonyl)-N-(6-(4-fluorophenoxy)pyridin-3-yl)nicotinamide], the EC50 lay in the range of 1000 to 5000 nM.

Molecule `N#Cc1ccc(CN2CCC(NC(=O)c3ccc(C(=O)N4CCC(C(=O)c5ccc(N6CCCC6)cc5)CC4)cn3)CC2)cc1` [Compound 365, N-(1-(4-cyanobenzyl)piperidin-4-yl)-5-(4-(4-(pyrrolidin-1-yl)benzoyl)piperidine-1-carbonyl)picolinamide] had an EC50 below 500 nM.

For `O=C(c1ccc(Nc2cccc(-c3ccccc3)c2)nc1)N1CCN(Cc2ccc(F)cc2)CC1` [Compound 33, (6-(3-phenylphenylamino)pyridin-3-yl)(4-(4-fluorobenzyl)piperazin-1-yl)methanone], the EC50 was 5000 to 10000 nM.

Molecule `COc1ccc(CN2CCC(NC(=O)c3ccc(C(=O)N4CCC(Oc5ccc(C#N)cc5)CC4)cn3)CC2)cc1` [Compound 162, 5-(4-(4-cyanophenoxy)piperidine-1-carbonyl)-N-(1-(4-methoxybenzyl)piperidin-4-yl)picolinamide] showed an EC50 below 500 nM.

Turning to `COc1ccc(OC2CCN(C(=O)c3ccc(C(=O)NC4CCN(Cc5ccc(C#N)cc5)CC4)cn3)CC2)c(N)c1` [Compound 384, 6-(4-(2-amino-4-methoxyphenoxy)piperidine-1-carbonyl)-N-(1-(4-cyanobenzyl)piperidin-4-yl)nicotinamide], the EC50 lay in the range of 500 to 1000 nM.

`N#Cc1ccc(OC2CCN(C(=O)c3ccc(C(=O)NC4CCN(c5ccc(C#N)cc5)CC4)cn3)CC2)cc1` [Compound 418, 6-(4-(4-cyanophenoxy)piperidine-1-carbonyl)-N-(1-(4-cyanophenyl)piperidin-4-yl)nicotinamide] had an EC50 below 500 nM.

Take `CS(=O)(=O)c1ccc(OC2CCN(C(=O)c3ccc(C(=O)N[C@@H]4CCN(Cc5ccc(C#N)cc5)C[C@H]4F)nc3)CC2)cc1` (relative stereo) [Compound 254, N-((trans)-1-(4-cyanobenzyl)-3-fluoropiperidin-4-yl)-5-(4-(4-(methylsulfonyl)phenoxy)piperidine-1-carbonyl)picolinamide]: the EC50 was below 500 nM.

For the molecule `N#Cc1ccc(Oc2ccc(NC(=O)c3ccc(C(=O)N4CCN(Cc5ccc(F)cc5)CC4)cn3)cn2)cc1` [Compound 63, 5-(4-(4-fluorobenzyl)piperazine-1-carbonyl)-(6-(4-cyanophenoxy)pyridin-3-yl)picolinamide], the EC50 was below 500 nM.

For `COc1ccc(C(=O)C2CCN(C(=O)c3ccc(C(=O)NC4CCN(Cc5cc(F)cc(F)c5)CC4)nc3)CC2)cc1` [Compound 287, N-(1-(3,5-difluorobenzyl)piperidin-4-yl)-5-(4-(4-methoxybenzoyl)piperidine-1-carbonyl)picolinamide], the EC50 is below 500 nM.

In the case of `COc1ccc(N2CCC(NC(=O)c3ccc(C(=O)N4CCN(Cc5ccc(F)cc5)CC4)nc3)CC2)cc1` [Compound 405, 6-(4-(4-fluorobenzyl)piperazine-1-carbonyl)-N-(1-(4-methoxyphenyl)piperidin-4-yl) nicotinamide], the EC50 was below 500 nM.

As for `CN1CCN(c2ccc(NC(=O)c3ccc(C(=O)N4CCN(Cc5ccc(F)cc5)CC4)cn3)cc2)CC1` [Compound 41, 5-(4-(4-fluorobenzyl)piperazine-1-carbonyl)-N-(4-(4-methylpiperazin-1-yl)phenyl)picolinamide], the EC50 was above 10000 nM.

For the molecule `N#Cc1ccc(O[C@H]2CC[C@@H](NC(=O)c3ccc(C(=O)N4CCC(Oc5ccc(C(F)(F)F)cc5)CC4)cn3)CC2)cc1F` [Compound 199, N-((cis)-4-(4-cyano-3-fluorophenoxy)cyclohexyl)-5-(4-(4-(trifluoromethyl)phenoxy)piperidine-1-carbonyl)picolinamide], the EC50 is below 500 nM.

Turning to `COc1ccc(OC2CCN(C(=O)c3ccc(C(=O)NC4CCN(Cc5ccc(C#N)cc5)CC4)cn3)CC2)c(N(C)C)c1` [Compound 385, N-(1-(4-cyanobenzyl)piperidin-4-yl)-6-(4-(2-(dimethylamino)-4-methoxyphenoxy)piperidine-1-carbonyl)nicotinamide], the EC50 is above 10000 nM.
